Measurements reported in PMC7956567, “Aqueous Solubility of Organic Compounds for Flow Battery Applications: Symmetry and Counter Ion Design to Avoid Low-Solubility Polymorphs” (Molecules, 2021).
Values after ≈ are worked out from the molar mass of the structure shown. Values joined by “and” are separate entries in the source; they are usually repeats but may differ in a detail not shown here. Identical values can stand only once. Counter-ions that a name gives are not always drawn.

Tests used:
[1] = Solubility by NMR method with imidazole as internal standard; type: physicochemical
Source text: (§1) Figure 3 illustrates the two methods used to determine solubility. The first method was gravimetry which required a higher amount of analyte to reduce any error arising from possible co-crystalized compounds. This method is easy to realize without the need for high-tech equipment, and its result is also a reference for the other method performed by NMR spectroscopy. The NMR method required only a small quantity of the analyte and was more accurate as no co-crystalized compounds were counted in its homogeneous solution phase.
The NMR spectra used to determine the solubility were recorded with a known amount of imidazole as the internal standard.
^1H NMR spectra were recorded in DMSO-d6 or CDCl3 solution at room temperature, on a Varian Unity Inova 500 spectrometer (Bruker Corp. Oxford, UK) (500 and 125 MHz for ^1H NMR and APT-NMR spectra, respectively), with the residual solvent signal as the lock and imidazole as the internal standard (only for solubility determination). Chemical shifts (δ) and coupling constants (J) are given in ppm and Hz, respectively.

[2] = set-up: method as in doi:10.1149/1945-7111/ab7550; conditions: water; disodium salts; cited from earlier work
[3] = Solubility by gravimetry; type: physicochemical; conditions: aqueous buffer, thermodynamic from solid, 1 M sulfuric acid, first isolated polymorph
Source text: as §1

[4] = 1 M acid, counter ion PO3 3− (phosphate), aqueous buffer, thermodynamic from solid, 1 M acid, counter ion PO3 3− [sic] (phosphate), read-out: Solubility in 1 M acid, PO3 3−
[5] = 1 M sulfuric acid, aqueous buffer, thermodynamic from solid, 1 M sulfuric acid, counter ion SO4 2−, final (more stable) polymorph, read-out: Solubility in 1 M acid, SO4 2−

2,3-dimethyl-5-[(morpholin-4-yl)methyl]benzene-1,4-diol [MMHQ]
Solubility in 1 M acid, ClO4− ([1]; 1 M acid, counter ion ClO4−): 20 mM
Solubility in 1 M acid, Cl− ([1]; 1 M acid, counter ion Cl−, NMR method, validated by gravimetric analysis): 0.07 ^1 M
Solubility in 1 M acid, PO3 3− ([1]; 1 M acid, counter ion PO3 3− [sic] (phosphate)): 0.48 M
Solubility in 1 M acid, SO4 2− ([1]; 1 M sulfuric acid, counter ion SO4 2−, final (more stable) polymorph): 480 mM

O=C1c2cccc(S(=O)(=O)[O-])c2C(=O)c2cccc(S(=O)(=O)[O-])c21.[Na+].[Na+] [1,5-AQDSNa2, 9,10-dioxo-9,10-dihydroanthracene-1,5-disulfonic acid disodium salt]
Aqueous solubility [2]: 70 mM

O=C1c2ccc(S(=O)(=O)[O-])cc2C(=O)c2ccc(S(=O)(=O)[O-])cc21.[Na+].[Na+] [2,6-AQDSNa2, 9,10-dioxo-9,10-dihydroanthracene-2,6-disulfonic acid disodium salt, reference compound]
Aqueous solubility [2]: below 0.1 M
solubility ([1]; water, disodium salt, NMR method with imidazole as internal standard, read-out: Aqueous solubility): 40 mM

O=C1c2ccc(S(=O)(=O)O)cc2C(=O)c2cc(S(=O)(=O)O)ccc21 [2,7-AQDS disodium salt, 9,10-dioxo-9,10-dihydroanthracene-2,7-disulfonic acid]
Aqueous solubility [2]: 580 mM and 740 mM

Oc1cc(CN2CCOCC2)c(O)cc1CN1CCOCC1 [DMHQ, 2,5-bis[(morpholin-4-yl)methyl]benzene-1,4-diol]
solubility ([1]; 1 M acid, counter ion ClO4−, aqueous buffer, thermodynamic from solid, 1 M acid, counter ion ClO4−, read-out: Solubility in 1 M acid, ClO4−): 10 mM (≈ 3.08 mg/mL)
solubility ([1]; 1 M acid, counter ion Cl−, thermodynamic from solid, 1 M acid, counter ion Cl−, NMR method, validated by gravimetric analysis, read-out: Solubility in 1 M acid, Cl−): 30 mM (≈ 9.25 mg/mL)
solubility [1, 4]: 530 mM (≈ 163 mg/mL)
solubility [1, 5]: 80 mM (≈ 24.7 mg/mL)
solubility ([1]; 1 M sulfuric acid, one year later, new polymorph, method not given, read-out: Solubility in 1 M sulfuric acid one year later): < 100 mM
solubility [3]: 1700 mM (≈ 524 mg/mL)

Cc1c(O)c(C)c(CN2CCOCC2)c(O)c1CN1CCOCC1 [asym-DDHQ, 2,6-dimethyl-3,5-bis[(morpholin-4-yl)methyl]benzene-1,4-diol]
solubility [1, 4]: 550 mM (≈ 185 mg/mL)
solubility [1, 5]: 440 mM (≈ 148 mg/mL)

Cc1c(O)c(CN2CCOCC2)c(C)c(O)c1CN1CCOCC1 [sym-DDHQ, 2,5-dimethyl-3,6-bis[(morpholin-4-yl)methyl]benzene-1,4-diol]
solubility [1, 4]: 400 mM (≈ 135 mg/mL)
solubility [1, 5]: 60 mM (≈ 20.2 mg/mL)
solubility ([1]; 1 M sulfuric acid, aqueous buffer, thermodynamic from solid, 1 M sulfuric acid, freshly obtained product, first polymorph, NMR method, read-out: Solubility of first polymorph in 1 M sulfuric acid): 240 mM (≈ 80.7 mg/mL)
